# Measurements published in patent US20240254143A1, “OREXIN RECEPTOR AGONISTS AND USES THEREOF” (JAZZ PHARMACEUTICALS IRELAND LIMITED, priority 2021, published 2024).
# Target: T1, human recombinant OX2 (hOX2) receptor (Homo sapiens, UniProt O43614)
# T1 construct: host or cells: CHO cells
# T1 sequence (O43614 1-444): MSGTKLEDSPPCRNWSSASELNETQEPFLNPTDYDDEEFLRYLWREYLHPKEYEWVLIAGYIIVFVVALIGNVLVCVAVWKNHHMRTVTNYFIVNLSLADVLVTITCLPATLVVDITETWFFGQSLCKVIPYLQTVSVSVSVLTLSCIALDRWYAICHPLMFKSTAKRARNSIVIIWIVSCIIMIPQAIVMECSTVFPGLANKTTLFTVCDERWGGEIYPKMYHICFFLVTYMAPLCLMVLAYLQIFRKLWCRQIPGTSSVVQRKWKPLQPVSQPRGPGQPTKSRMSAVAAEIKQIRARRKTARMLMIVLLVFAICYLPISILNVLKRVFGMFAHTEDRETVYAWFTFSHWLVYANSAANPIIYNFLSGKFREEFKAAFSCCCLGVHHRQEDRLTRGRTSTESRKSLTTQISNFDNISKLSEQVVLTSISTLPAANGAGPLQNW
# Assay: IP-1 accumulation assay (IP-One HTRF) in hOX2-CHO cells
# Format: cell-based
# Conditions: 60 min at 37° C., mean of at least two independent experiments, read-out: EC50_OX2R Category
# Protocol: Example 94: IP-1 Accumulation Assay
# The accumulation of Inositol-1 Monophosphate (IP-1) was measured using IP-One HTRF® Terbium cryptate based assay (Cisbio) in human recombinant OX1 (hOX1) and at OX2 (hOX2) receptors expressed in CHO cells (DiscoverX) according to the manufacturer's instructions for cells tested in suspension.
# hOX1-CHO and hOX2-CHO cells were seeded into white 384-well plates at a density of 20,000 cells/well in Hank's Balanced Salt Solution (HBSS) containing 20 mM HEPES pH 7.4, 50 mM, LiCl and 0.1% and Bovine Serum Albumin (BSA).
# Compounds of the present disclosure were tested in a 11 points concentration response curve (CRC) serially diluted in neat DMSO at 200 fold concentrations and added by Echo acoustic liquid handling (Labcyte) to the cells (0.5% DMSO final in the assay). After 60 min of incubation at 37° C. detection reagents, IP1-d2 tracer and anti-IP1-cryptate were diluted in lysis buffer according to the manufacturer's descriptions and added to the cells.
# Following 60 mi incubation at room temperature, time-resolved fluorescence (HTRF) was measured at 615 nm and 665 nm by Envision Multilabel reader (Perkin Elmer) and the HTRF ratio (A665/A615×10^4) was calculated.
# The IP-1 accumulation response was expressed as percentage of the maximal OX-A response.
# Curve fitting and EC50 estimations were carried out using a four-parameter logistic model using XLfit Software. Mean data of EC50 are calculated from at least two independent experiments performed in duplicates.
row,Compound,EC50
1,"COC(=O)N1CCCC2(CCC(=O)N2)C1Cc1cccc(-c2ccccc2)c1 (mixture of isomers) [Example 28, Methyl 6-({[1,1′-biphenyl]-3-yl}methyl)-2-oxo-1,7-diazaspiro[4.5]decane-7-carboxylate]",> 10000 nM
2,"O=C1COCC2(CCCN(C(=O)C3CC3)C2CO[C@H]2CC[C@@H](c3ccccc3)CC2)N1 (mixture of isomers) [Example 7, (CIS)-8-cyclopropanecarbonyl-7-({[(CIS)-4-phenylcyclohexyl]oxy}methyl)-4-oxa-1,8-diazaspiro[5.5]undecan-2-one]",100 to 1000 nM
3,"CCNC(=O)N1CCC2(COC(=O)N2)C1CO[C@H]1CC[C@@H](c2ccccc2)CC1 (mixture of isomers) [Example 18, (CIS)-N-ethyl-2-oxo-6-({[(CIS)-4-phenylcyclohexyl]oxy}methyl)-3-oxa-1,7-diazaspiro[4.4]nonane-7-carboxamide]",> 10000 nM
4,"CCNC(=O)N1CCC[C@@]2(CCOC(=O)N2)[C@@H]1Cc1cccc(-c2ccccc2)c1 (racemic) [Example 24, (CIS)-7-({[1,1′-biphenyl]-3-yl}methyl)-N-ethyl-2-oxo-3-oxa-1,8-diazaspiro[5.5]undecane-8-carboxamide]",1000 to 10000 nM
5,"CCNC(=O)N1CCC[C@@]2(CCOC(=O)N2)[C@H]1Cc1cccc(-c2ccccc2)c1 (racemic) [Example 25, (Trans)-7-({[1,1′-biphenyl]-3-yl}methyl)-N-ethyl-2-oxo-3-oxa-1,8-diazaspiro[5.5]undecane-8-carboxamide]",> 10000 nM
6,"CCNC(=O)N1CCC[C@@]2(CNS(=O)(=O)N2)[C@@H]1Cc1cccc(-c2ccccc2)c1 (racemic) [Example 30, (CIS)-6-({[1,1′-biphenyl]-3-yl}methyl)-N-ethyl-2,2-dioxo-2λ^6-thia-1,3,7-triazaspiro[4.5]decane-7-carboxamide]",> 10000 nM
7,"CCNC(=O)N1CCCC2(COCS(=O)(=O)N2)C1CO[C@H]1CC[C@@H](c2ccccc2)CC1 (mixture of isomers) [Example 36, rel-(6S,7R)-N-ethyl-2,2-dioxo-7-({[(CIS)-4-phenylcyclohexyl]oxy}methyl)-4-oxa-2λ^6-thia-1,8-diazaspiro[5.5] undecane-8-carboxamide]",100 to 1000 nM
8,"CCNC(=O)N1CCCC2(CCCS(=O)(=O)N2)C1CO[C@H]1CC[C@@H](c2ccccc2)CC1 (mixture of isomers) [Example 37, rel-(6R,7R)-N-ethyl-2,2-dioxo-7-({[(CIS)-4-phenylcyclohexyl]oxy}methyl)-2λ^6-thia-1,8-diazaspiro[5.5] undecane-8-carboxamide]",100 to 1000 nM
9,"CCNC(=O)N1CCCC2(COCCS(=O)(=O)N2)C1CO[C@H]1CC[C@@H](c2ccccc2)CC1 (mixture of isomers) [Example 38, rel-(1R,6S)-N-ethyl-8,8-dioxo-1-({[(CIS)-4-phenylcyclohexyl]oxy}methyl)-11-oxa-8λ^6-thia-2,7-diazaspiro[5.6]dodecane-2-carboxamide]",100 to 1000 nM
10,"CN1CC(=O)NC2(CCCN(C(=O)OCC(F)F)C2CO[C@H]2CC[C@@H](c3ccccc3)CC2)C1 (mixture of isomers) [Example 56, 2,2-difluoroethyl-rel-(6R,7R)-4-methyl-2-oxo-7-({[(CIS)-4-phenylcyclohexyl]oxy}methyl)-1,4,8-triazaspiro [5.5]undecane-8-carboxylate]",100 to 1000 nM
11,"CN1CCC2(CCCN(C(=O)OCC(F)F)C2CO[C@H]2CC[C@@H](c3ccccc3)CC2)NC1=O (mixture of isomers) [Example 57, 2,2-difluoroethyl-rel-(6R,7R)-3-methyl-2-oxo-7-({[(CIS)-4-phenylcyclohexyl]oxy}methyl)-1,3,8-triazaspiro [5.5]undecane-8-carboxylate]",> 10000 nM
12,"O=C1NC2(CCCN(C(=O)OCC(F)F)C2CO[C@H]2CC[C@@H](c3ccccc3)CC2)CCO1 (mixture of isomers) [Example 65, 2,2-difluoroethyl-rel-(6R,7R)-2-oxo-7-({[(CIS)-4-phenylcyclohexyl]oxy}methyl)-3-oxa-1,8-diazaspiro[5.5] undecane-8-carboxylate]",100 to 1000 nM
13,"O=C1NC2(CCCN(CC(F)(F)F)C2CO[C@H]2CC[C@@H](c3ccccc3)CC2)CCO1 (mixture of isomers) [Example 68, rel-(6R,7R)-7-({[(CIS)-4-phenylcyclohexyl]oxy}methyl)-8-(2,2,2-trifluoroethyl)-3-oxa-1,8-diazaspiro[5.5] undecan-2-one]",> 10000 nM
14,"CCNC(=O)N1C[C@@H](C)C2(COCC(=O)N2)C1Cc1cccc(-c2cc(F)cc(F)c2)c1F (mixture of isomers) [Example 70, rel-(1S,5S)-(4S)-N-ethyl-4-methyl-7-oxo-1-({2,3′,5′-trifluoro-[1,1′-biphenyl]-3-yl}methyl)-9-oxa-2,6-diazaspiro[4.5]decane-2-carboxamide]",1000 to 10000 nM
15,"O=C1COCC2(CCN(C(=O)[C@H]3C[C@@H](F)C3)C2Cc2cccc(-c3cc(F)cc(F)c3)c2F)N1 (mixture of isomers) [Example 71, rel-(1S,5S)-2-[(1s,3s)-3-fluorocyclobutanecarbonyl]-1-({2,3′,5′-trifluoro-[1,1′-biphenyl]-3-yl}methyl)-9-oxa-2,6-diazaspiro[4.5]decan-7-one]",100 to 1000 nM

# Other lines, results leading:
row,EC50,Compound
1,< 100 nM,"CCNC(=O)N1CCCC2(COCC(=O)N2)C1CO[C@H]1CC[C@@H](c2ccccc2)CC1 (mixture of isomers) [Example 1, (CIS)-N-ethyl-2-oxo-7-({[(CIS)-4-phenylcyclohexyl]oxy}methyl)-4-oxa-1,8-diazaspiro[5.5]undecane-8-carboxamide]"
2,1000 to 10000 nM,"COC(=O)N1CCCC2(COCC(=O)N2)C1CO[C@H]1CC[C@@H](c2ccccc2)CC1 (mixture of isomers) [Example 4, Methyl (CIS)-2-oxo-7-({[(CIS)-4-phenylcyclohexyl]oxy}methyl)-4-oxa-1,8-diazaspiro[5.5]undecane-8-carboxylate]"
3,1000 to 10000 nM,CCNC(=O)N1CCCC2(COC(=O)N2)C1CO[C@H]1CC[C@@H](c2ccccc2)CC1 (mixture of isomers) [Example 10]
4,1000 to 10000 nM,"CCNC(=O)N1CCC2(COCC(=O)N2)C1CO[C@H]1CC[C@@H](c2ccccc2)CC1 (mixture of isomers) [Example 15, (CIS)-N-ethyl-7-oxo-1-({[(CIS)-4-phenylcyclohexyl]oxy}methyl)-9-oxa-2,6-diazaspiro[4.5]decane-2-carboxamide]"
5,< 100 nM,"CCNC(=O)N1CCCC2(CCCC(=O)N2)C1CO[C@H]1CC[C@@H](c2ccccc2)CC1 (mixture of isomers) [Example 33, rel-(6S,7R)-N-ethyl-2-oxo-7-({[(CIS)-4-phenylcyclohexyl]oxy}methyl)-1,8-diazaspiro[5.5]undecane-8-carboxamide]"
6,100 to 1000 nM,"CCNC(=O)N1CCCC2(COCC(=O)N2)C1COC1CCN(c2ncc(F)cn2)CC1 (racemic) [Example 76, rel-(6S,7R)-N-ethyl-7-({[1-(5-fluoropyrimidin-2-yl)piperidin-4-yl]oxy}methyl)-2-oxo-4-oxa-1,8-diazaspiro[5.5]undecane-8-carboxamide]"
7,1000 to 10000 nM,"O=C1COCC2(CCCN(C(=O)OCC(F)F)C2COC2CCN(c3ncc(F)cn3)CC2)N1 (racemic) [Example 77, 2,2-difluoroethyl-rel-(6S,7R)-7-({[1-(5-fluoropyrimidin-2-yl)piperidin-4-yl]oxy}methyl)-2-oxo-4-oxa-1,8-diazaspiro[5.5]undecane-8-carboxylate]"
8,100 to 1000 nM,"O=C1COCC2(CCCN(C(=O)[C@H]3C[C@@H](F)C3)C2COC2CCN(c3ncc(F)cn3)CC2)N1 (mixture of isomers) [Example 78, rel-(6S,7R)-8-(3-fluorocyclobutanecarbonyl)-7-({[1-(5-fluoropyrimidin-2-yl)piperidin-4-yl]oxy}methyl)-4-oxa-1,8-diazaspiro[5.5]undecan-2-one]"
9,< 100 nM,"CCNC(=O)N1CCCC2(COC(F)C(=O)N2)C1CO[C@H]1CC[C@@H](c2ccccc2)CC1 (relative stereo) [Example 41, rel-(6S,7R)-N-ethyl-3-fluoro-2-oxo-7-({[(CIS)-4-phenylcyclohexyl]oxy}methyl)-4-oxa-1,8-diazaspiro[5.5] undecane-8-carboxamide]"
10,< 100 nM,"CCNC(=O)N1CCC[C@@]2(COCCC(=O)N2)[C@@H]1CO[C@H]1CC[C@@H](c2ccccc2)CC1 (relative stereo) [Example 55, rel-(1R,6S)-N-ethyl-8-oxo-1-({[(CIS)-4-phenylcyclohexyl]oxy}methyl)-11-oxa-2,7-diazaspiro[5.6]dodecane-2-carboxamide]"
